{"source": "patent US20240238358A1", "about": "“TRADITIONAL CHINESE MEDICINE COMPOSITION FOR INFECTIOUS DISEASE RECOVERY AND USE THEREOF” (CHINA RESOURCES SANJIU MEDICAL & PHARMACEUTICAL CO., LTD., priority 2021, published 2024)", "system": "ARE luciferase activity of 293T cells", "experiment": "ARE luciferase reporter gene activity in transfected 293T cells (dual-luciferase, anti-oxidation activity)", "type": "cell-based", "conditions": "tBHQ 10 μM, 6 h, n = 18, control = 1 ± 0.19, relative luciferase activity", "protocol": "The 293T cells in the logarithmic growth phase were inoculated in a 96-well cell culture plate at a density of 2×10^5 cells/mL. After the growth density of the cells reached 70%-80%, the ARE and NF-kB luciferase reporter plasmids pGL4.37 and pGL4.32 (100 ng/well) and the […] luciferase reporter plasmid pGL4.75 (10 ng/well) were simultaneously transfected using the PEI (1 mg/mL) transfection reagent and then cultured for 24 h. After 24 h of culture, cells transfected with the ARE luciferase reporter plasmid pGL4.37 were added to tBHQ (10 μM) and each of the sample solutions of the traditional Chinese compositions of the present disclosure with safe concentrations, respectively, a control group was set, and the cells were cultured for 6 h; cells transfected with the NF-kB luciferase reporter plasmid pGL4.32 were added to TNF-α (10 ng/mL)-dexamethasone (10 μM) diluted with a complete medium and each of the sample solutions of the traditional Chinese compositions of the present disclosure with safe concentrations, respectively, a control group and a model group (10 ng/mL TNF-a) were set, and the cells were cultured for 6 h. The supernatant was discarded, the cells were rinsed with PBS, and after the cells were lysed, the cells were detected by a dual-luciferase detection system. Six duplicate wells were set for each experiment, and each experiment was repeated three times. […]", "data": [{"smiles": "CC(C)(C)c1cc(O)ccc1O", "note": "[tBHQ, tertiary butylhydroquinone]", "values": [{"measurement": "ARE luciferase activity of 293T cells (x ± SD)", "value": "6.82 ± 1.28"}]}]}
